Laboratory results as given in ChEMBL document CHEMBL1135003, “Synthesis of aglycon analogues of sarmentosin and their bioactivity of lymphocyte proliferation” (2002).

Assay: In vitro effect on the proliferation of B lymphocytes of mouse splenocytes at 0.2 umol/L to show the antibody formation by [3H]thymidine incorporation
Format: functional

Row | Structure (SMILES) | Activity [%]
1 | N#C/C(=C\COC(=O)c1ccccc1)CO | 137
2 | N#C/C(=C\COC(=O)/C=C/c1ccccc1)CO | 96
3 | N#C/C(=C\COC(=O)c1ccc(F)cc1Cl)CO | 151
4 | COc1ccc(COC/C=C(\C#N)CO)cc1 | 169
5 | N#C/C(=C\COC(=O)c1ccc(Cl)cc1Cl)CO | 68
6 | N#C/C(=C\COc1ccccc1)CO | 51
7 | COc1ccc(OC/C=C(\C#N)CO)cc1 | 81
8 | COc1ccc(C(=O)OC/C=C(\C#N)CO)cc1 | 109

Assay: In vitro effect on the proliferation of T lymphocytes of mouse splenocytes at 2 umol/L to show the cell-mediated immunity by [3H]thymidine incorporation
Format: functional

Row | Structure (SMILES) | Activity [%]
9 | N#C/C(=C\COC(=O)c1ccccc1)CO | 68
10 | N#C/C(=C\COC(=O)/C=C/c1ccccc1)CO | 62
11 | N#C/C(=C\COC(=O)c1ccc(F)cc1Cl)CO | 98
12 | COc1ccc(COC/C=C(\C#N)CO)cc1 | 54
13 | N#C/C(=C\COC(=O)c1ccc(Cl)cc1Cl)CO | 94
14 | N#C/C(=C\COc1ccccc1)CO | 113
15 | COc1ccc(OC/C=C(\C#N)CO)cc1 | 114
16 | COc1ccc(C(=O)OC/C=C(\C#N)CO)cc1 | 63

Assay: In vitro effect on the proliferation of T lymphocytes of mouse splenocytes at 0.2 umol/L to show the cell-mediated immunity by [3H]thymidine incorporation
Format: functional

Row | Structure (SMILES) | Activity [%]
17 | N#C/C(=C\COC(=O)c1ccccc1)CO | 97
18 | N#C/C(=C\COC(=O)/C=C/c1ccccc1)CO | 80
19 | N#C/C(=C\COC(=O)c1ccc(F)cc1Cl)CO | 123
20 | COc1ccc(COC/C=C(\C#N)CO)cc1 | 93
21 | N#C/C(=C\COC(=O)c1ccc(Cl)cc1Cl)CO | 119
22 | N#C/C(=C\COc1ccccc1)CO | 100
23 | COc1ccc(OC/C=C(\C#N)CO)cc1 | 101
24 | COc1ccc(C(=O)OC/C=C(\C#N)CO)cc1 | 100

Assay: In vitro effect on the proliferation of T lymphocytes of mouse splenocytes at 20 umol/L to show the cell-mediated immunity by [3H]thymidine incorporation
Format: functional

Row | Structure (SMILES) | Activity [%]
25 | N#C/C(=C\COC(=O)c1ccccc1)CO | 23
26 | N#C/C(=C\COC(=O)/C=C/c1ccccc1)CO | 38
27 | N#C/C(=C\COC(=O)c1ccc(F)cc1Cl)CO | 29
28 | COc1ccc(COC/C=C(\C#N)CO)cc1 | 37
29 | N#C/C(=C\COC(=O)c1ccc(Cl)cc1Cl)CO | 131
30 | N#C/C(=C\COc1ccccc1)CO | 131
31 | COc1ccc(OC/C=C(\C#N)CO)cc1 | 80
32 | COc1ccc(C(=O)OC/C=C(\C#N)CO)cc1 | 25

Assay: In vitro effect on the proliferation of B lymphocytes of mouse splenocytes at 2.0 umol/L to show the antibody formation by [3H]thymidine incorporation
Format: functional

Row | Structure (SMILES) | Activity [%]
33 | N#C/C(=C\COC(=O)c1ccccc1)CO | 73
34 | N#C/C(=C\COC(=O)/C=C/c1ccccc1)CO | 69
35 | N#C/C(=C\COC(=O)c1ccc(F)cc1Cl)CO | 151
36 | COc1ccc(COC/C=C(\C#N)CO)cc1 | 71
37 | N#C/C(=C\COC(=O)c1ccc(Cl)cc1Cl)CO | 69
38 | N#C/C(=C\COc1ccccc1)CO | 48
39 | COc1ccc(OC/C=C(\C#N)CO)cc1 | 77
40 | COc1ccc(C(=O)OC/C=C(\C#N)CO)cc1 | 86

Assay: In vitro effect on the proliferation of B lymphocytes of mouse splenocytes at 20 umol/L to show the antibody formation by [3H]thymidine incorporation
Format: functional

Row | Structure (SMILES) | Activity [%]
41 | N#C/C(=C\COC(=O)c1ccccc1)CO | 67
42 | N#C/C(=C\COC(=O)/C=C/c1ccccc1)CO | 20
43 | N#C/C(=C\COC(=O)c1ccc(F)cc1Cl)CO | 113
44 | COc1ccc(COC/C=C(\C#N)CO)cc1 | 38
45 | N#C/C(=C\COC(=O)c1ccc(Cl)cc1Cl)CO | 73
46 | N#C/C(=C\COc1ccccc1)CO | 45
47 | COc1ccc(OC/C=C(\C#N)CO)cc1 | 79
48 | COc1ccc(C(=O)OC/C=C(\C#N)CO)cc1 | 31
